These results are taken from ChEMBL document CHEMBL5113487, “Novel anilinopyrimidine derivatives as potential EGFRT790M/C797S Inhibitors: Design, Synthesis, biological activity study” (Bioorg Med Chem, 2022).

Series [1] has as its system BaF3. Kind of series: Antiproliferative activity against mouse BaF3 cells harboring del18/T790M/C797S triple mutant assessed as cell growth inhibition incubated for 72 hrs by cell titre glo luminescence assay. It is filed as functional, cell-based. Particulars: BaF3, 72 h.
Another series has as its system A-431. Put plainly: Antiproliferative activity against human A-431 cells assessed as cell growth inhibition incubated for 72 hrs by cell titre glo luminescence assay. It is filed as functional, cell-based. The note with it: A-431, 72 h.
For series [2], the system named is BaF3. Put plainly: cells. The note with it: Mus musculus, BaF3, 72 h.
A short description of series [3]: AUC(0 to infinity) in mouse at 5 mg/kg measured upto 24 hrs by LC-MS/MS analysis. It is filed as ADME, organism-based. Set-up: dose 5 mg/kg, time < 24 hrs. The note with it: in vivo.
Series [4] concerns BaF3. Kind of series: Antitumor activity against mouse BaF3 cells harboring EGFR del18/T790M/C797S triple mutant implanted in Balb/c nude mouse assessed as tumor weight at 40 mg/kg, po administered once a day for 14 days. The format is functional. Particulars: time 14 day.
The target of series [5] is Epidermal growth factor receptor (Homo sapiens, UniProt P00533). Put plainly: In vivo inhibition of EGFR phosphorylation in nude mouse implanted with mouse BaF3 cells harboring EGFR del18/T790M/C797S triple mutant at 20 mg/kg, po administered as single dose and measured upto 24 hrs by Western blot analysis. A general note: In western blotting, separated proteins are transferred to a membrane and probed.

Series [6] can be described thus: Drug distribution in brain of nude mouse implanted with mouse BaF3 cells harboring EGFR del18/T790M/C797S triple mutant at 20 mg/kg, po administered as single dose and measured upto 24 hrs. The format is ADME, organism-based. The note with it: in vivo.
The target of series [7] is Epidermal growth factor receptor (Homo sapiens, UniProt P00533, C797S/L858R/T790M). Kind of series: Inhibition of EGFR L858R/T790M/C797S triple mutant (unknown origin) using TK as substrate incubated for 120 mins in the presence of ATP by HTRF assay. On the technique in general: In TR-FRET formats the signal depends on donor and acceptor labels being close together.
For another series, the target named is CDK9/cyclin T1 (Homo sapiens, UniProt P50750). Kind of series: Inhibition of CDK9/Cyclin T1 (unknown origin). The format is protein-complex assay.
For a further series, the target named is CDK6/cyclin D3 (Homo sapiens, UniProt Q00534). Kind of series: Inhibition of CDK6/cyclin-D3 (unknown origin). The format is protein-complex assay.
For series [8], the system named is BaF3. Kind of series: Antitumor activity against mouse BaF3 cells harboring EGFR del18/T790M/C797S triple mutant implanted in Balb/c nude mouse assessed as tumor growth inhibition at 30 mg/kg, po administered once a day for 14 days relative to control. It is filed as functional. Particulars: BaF3, 336 h, time 14 day, read-out: TGI.
Series [9] in a line: Acute toxicity in Sprague-Dawley rat assessed as biological changes in clinical pathology at 15 to 60 mg/kg, IG administered as single dose and measured after 14 days. Particulars: in vivo, po, 336 h, dose 15-60 mg/kg, time 14 day. The format is organism-based.
The target in series [10] is Epidermal growth factor receptor (Homo sapiens, UniProt P00533, C797S/EX18DEL/T790M). Put plainly: Inhibition of EGFR del18/T790M/C797S triple mutant (unknown origin) using TK as substrate incubated for 120 mins in the presence of ATP by HTRF assay.
For series [11], the target named is Phosphatidylinositol 4,5-bisphosphate 3-kinase catalytic subunit alpha isoform (Homo sapiens, UniProt P42336). Put plainly: Inhibition of PI3Kalpha (unknown origin).
A short description of series [12]: AUC(0 to t) in mouse at 5 mg/kg measured upto 24 hrs by LC-MS/MS analysis. Particulars: in vivo. Set-up: time < 24 hrs, dose 5 mg/kg. The format is ADME, organism-based.
For series [13], the system named is BaF3. Kind of series: Antitumor activity against mouse BaF3 cells harboring EGFR del18/T790M/C797S triple mutant implanted in Balb/c nude mouse assessed as tumor growth inhibition at 40 mg/kg, po administered once a day for 14 days relative to control. The format is functional. Particulars: BaF3, 336 h, time 14 day, read-out: TGI.
The test system of series [14] is BaF3. Kind of series: In vivo inhibition of ERK phosphorylation in nude mouse implanted with mouse BaF3 cells harboring EGFR del18/T790M/C797S triple mutant at 20 mg/kg, po administered as single dose and measured upto 24 hrs by Western blot analysis. It is filed as organism-based.
The test system of series [15] is PC-9. Kind of series: Antitumor activity against human PC-9 cells harboring EGFR del18/T790M/C797S triple mutant xenografted in NOD/SCID mouse assessed as tumor growth inhibition at 40 mg/kg, po administered once a day for 21 days relative to control. The format is functional. Particulars: PC-9, 504 h, time 21 day, read-out: TGI. Background: In xenograft studies the graft and the host belong to different species.

A short description of series [16]: Half-life in mouse at 5 mg/kg measured upto 24 hrs by LC-MS/MS analysis. The format is ADME, organism-based. The note with it: in vivo.
Series [17] has as its system PC-9. Put plainly: Antitumor activity against human PC-9 cells harboring EGFR del18/T790M/C797S triple mutant xenografted in NOD/SCID mouse assessed as tumor growth inhibition at 30 mg/kg, po administered once a day for 21 days relative to control. Particulars: PC-9, 504 h, time 21 day, read-out: TGI. It is filed as functional.
Series [18] is described as follows: Antitumor activity against patient-derived human […] cells xenografted in mouse assessed as tumor growth inhibition at 20 mg/kg, po administered once a day for 28 days relative to control. It is filed as functional. Particulars: LD1-0025-200717, 672 h, time 28 day, read-out: TGI.
Series [19] is described as follows: Antitumor activity against patient-derived human […] cells xenografted in mouse assessed as tumor weight at 40 mg/kg, po administered once a day for 28 days relative to control. It is filed as functional, LD1-0025-200717. Particulars: time 28 day.
Series [20] deals with BaF3. Kind of series: Antitumor activity against mouse BaF3 cells harboring EGFR del18/T790M/C797S triple mutant implanted in Balb/c nude mouse assessed as tumor growth inhibition at 15 mg/kg, po administered once a day for 14 days relative to control. The format is functional. The note with it: BaF3, 336 h, time 14 day, read-out: TGI.
A short description of series [21]: Antitumor activity against patient-derived human […] cells xenografted in mouse assessed as tumor growth inhibition at 40 mg/kg, po administered once a day for 28 days relative to control. It is filed as functional. Particulars: LD1-0025-200717, 672 h, time 28 day, read-out: TGI.
Series [22] is described as follows: Drug distribution in tumor of nude mouse implanted with mouse BaF3 cells harboring EGFR del18/T790M/C797S triple mutant at 20 mg/kg, po administered as single dose and measured upto 24 hrs. It is filed as ADME, organism-based, Neoplasm. Particulars: in vivo.
The target of series [23] is Serine/threonine-protein kinase B-raf (Homo sapiens, UniProt P15056). Put plainly: Inhibition of BRAF (unknown origin).
Series [24] in a line: Toxicity in Sprague-Dawley rat assessed as effect on body weight at 3 to 7.5 mg/kg, po administered once a day for 4 weeks and measured 4 weeks post recovery period. The note with it: in vivo, 1344 h, dose 3-7.5 mg/kg, time 8 weeks. It is filed as organism-based.
For series [25], the system named is PC-9. Put plainly: Antitumor activity against human PC-9 cells harboring EGFR del18/T790M/C797S triple mutant xenografted in NOD/SCID mouse assessed as tumor growth inhibition at 15 mg/kg, po administered once a day for 21 days relative to control. It is filed as functional. Particulars: PC-9, 504 h, time 21 day, read-out: TGI.
Series [26] in a line: MRT in mouse at 5 mg/kg measured upto 24 hrs by LC-MS/MS analysis. It is filed as ADME, organism-based. Particulars: in vivo.
Series [27] deals with Mitogen-activated protein kinase 14 (Homo sapiens, UniProt Q16539). Put plainly: Inhibition of P38alpha (unknown origin).
Series [28] is described as follows: Toxicity in Sprague-Dawley rat assessed as body weight gain during recovery period at 15 mg/kg, po administered once a day for 4 weeks and measured 4 weeks post recovery period. The format is organism-based. The note with it: in vivo, 1344 h, time 8 weeks.
In series [29] the target is RAC-gamma serine/threonine-protein kinase (Homo sapiens, UniProt Q9Y243). Kind of series: Inhibition of AKT3 (unknown origin).
The nature of series [30]: Toxicity in Sprague-Dawley rat assessed as animal death at 3 to 15 mg/kg, po administered once a day for 4 weeks and measured 4 weeks post recovery period. It is filed as organism-based. The note with it: in vivo, 1344 h, dose 3-15 mg/kg, time 8 weeks.
Series [31] in a line: Drug distribution in plasma of nude mouse implanted with mouse BaF3 cells harboring EGFR del18/T790M/C797S triple mutant at 15 to 45 mg/kg, po administered as single dose and measured after 4 hrs. It is filed as ADME, organism-based. The note with it: in vivo, dose 15-45 mg/kg.
Series [32] is described as follows: Drug distribution in tumor of nude mouse implanted with mouse BaF3 cells harboring EGFR del18/T790M/C797S triple mutant at 15 to 45 mg/kg, po administered as single dose and measured after 4 hrs. The format is ADME, organism-based, Neoplasm. Particulars: in vivo, dose 15-45 mg/kg.
Series [33] in a line: Antitumor activity against patient-derived human […] cells xenografted in mouse assessed as tumor weight at 20 mg/kg, po administered once a day for 28 days relative to control. Particulars: time 28 day. It is filed as functional, LD1-0025-200717.
The nature of series [34]: Cmax in mouse at 5 mg/kg measured upto 24 hrs by LC-MS/MS analysis. It is filed as ADME, organism-based. Also noted: time < 24 hrs, dose 5 mg/kg. The note with it: in vivo.
Series [35] has as its system BaF3. Put plainly: Antitumor activity against mouse BaF3 cells harboring EGFR del18/T790M/C797S triple mutant implanted in Balb/c nude mouse assessed as tumor weight at 30 mg/kg, po administered once a day for 14 days. It is filed as functional. The note with it: time 14 day.
The test system of series [36] is BaF3. Put plainly: Antitumor activity against mouse BaF3 cells harboring EGFR del18/T790M/C797S triple mutant implanted in Balb/c nude mouse assessed as tumor weight at 15 mg/kg, po administered once a day for 14 days. Particulars: time 14 day. It is filed as functional.
Series [37] in a line: Inhibition of ABL (unknown origin). Set-up: species or system Homo sapiens.
Series [38] is described as follows: Toxicity in orally dosed Sprague-Dawley rat assessed as maximum tolerated dose administered once a day for 4 weeks and measured 4 weeks post recovery period. The format is organism-based. Particulars: in vivo, route po, time 8 weeks.

The source made the active and inactive calls. The calls are words filed in the database; no cut-off is given here.

Chain of Epidermal growth factor receptor (Homo sapiens, UniProt P00533) (P00533 whole entry, looked up): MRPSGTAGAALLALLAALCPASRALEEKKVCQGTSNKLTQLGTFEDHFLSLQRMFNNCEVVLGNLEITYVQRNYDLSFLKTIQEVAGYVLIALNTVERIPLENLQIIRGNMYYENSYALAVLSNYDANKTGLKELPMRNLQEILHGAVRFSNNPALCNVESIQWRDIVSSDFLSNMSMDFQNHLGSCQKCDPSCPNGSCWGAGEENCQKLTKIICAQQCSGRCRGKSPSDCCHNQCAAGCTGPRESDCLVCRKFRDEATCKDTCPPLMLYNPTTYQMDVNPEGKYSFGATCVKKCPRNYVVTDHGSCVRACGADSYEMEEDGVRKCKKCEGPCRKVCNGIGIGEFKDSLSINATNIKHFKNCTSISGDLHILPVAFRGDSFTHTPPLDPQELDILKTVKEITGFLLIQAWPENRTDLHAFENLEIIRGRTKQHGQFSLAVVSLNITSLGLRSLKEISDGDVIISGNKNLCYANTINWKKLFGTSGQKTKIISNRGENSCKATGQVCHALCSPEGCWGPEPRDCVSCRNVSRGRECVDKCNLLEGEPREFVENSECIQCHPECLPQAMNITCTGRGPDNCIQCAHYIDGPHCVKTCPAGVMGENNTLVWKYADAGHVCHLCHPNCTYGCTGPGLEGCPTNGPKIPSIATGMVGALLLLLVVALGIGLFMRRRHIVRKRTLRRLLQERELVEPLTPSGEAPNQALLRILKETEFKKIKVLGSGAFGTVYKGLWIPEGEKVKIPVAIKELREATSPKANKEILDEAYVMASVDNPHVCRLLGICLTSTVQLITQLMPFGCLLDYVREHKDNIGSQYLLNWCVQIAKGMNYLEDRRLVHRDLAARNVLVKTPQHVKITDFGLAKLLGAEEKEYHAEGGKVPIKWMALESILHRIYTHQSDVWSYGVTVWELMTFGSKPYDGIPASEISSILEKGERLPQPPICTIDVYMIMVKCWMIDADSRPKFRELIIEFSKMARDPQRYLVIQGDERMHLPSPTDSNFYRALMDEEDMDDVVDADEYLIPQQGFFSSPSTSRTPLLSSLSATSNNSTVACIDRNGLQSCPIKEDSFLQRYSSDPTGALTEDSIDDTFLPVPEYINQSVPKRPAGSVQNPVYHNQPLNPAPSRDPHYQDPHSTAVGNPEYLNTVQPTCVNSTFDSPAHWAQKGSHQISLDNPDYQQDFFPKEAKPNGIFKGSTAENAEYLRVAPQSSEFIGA
Chain of Epidermal growth factor receptor (Homo sapiens, UniProt P00533, C797S/EX18DEL/T790M) (P00533 whole entry, looked up, stated change not applied, canonical isoform): as the sequence (P00533 whole entry, looked up) above
Chain of RAC-gamma serine/threonine-protein kinase (Q9Y243 whole entry): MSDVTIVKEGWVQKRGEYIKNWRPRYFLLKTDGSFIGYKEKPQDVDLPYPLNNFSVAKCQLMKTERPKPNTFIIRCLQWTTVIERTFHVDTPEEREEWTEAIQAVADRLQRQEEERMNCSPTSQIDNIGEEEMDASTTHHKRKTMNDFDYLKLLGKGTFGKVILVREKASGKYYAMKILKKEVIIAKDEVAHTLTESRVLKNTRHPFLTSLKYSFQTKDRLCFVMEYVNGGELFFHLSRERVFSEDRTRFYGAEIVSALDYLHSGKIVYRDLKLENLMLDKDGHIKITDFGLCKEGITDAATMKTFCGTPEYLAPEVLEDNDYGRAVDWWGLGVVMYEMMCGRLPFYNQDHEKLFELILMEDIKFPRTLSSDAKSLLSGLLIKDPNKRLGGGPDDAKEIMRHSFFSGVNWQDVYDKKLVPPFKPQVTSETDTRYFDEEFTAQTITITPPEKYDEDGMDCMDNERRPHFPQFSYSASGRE
Chain of CDK9/cyclin T1 (O60563 whole entry): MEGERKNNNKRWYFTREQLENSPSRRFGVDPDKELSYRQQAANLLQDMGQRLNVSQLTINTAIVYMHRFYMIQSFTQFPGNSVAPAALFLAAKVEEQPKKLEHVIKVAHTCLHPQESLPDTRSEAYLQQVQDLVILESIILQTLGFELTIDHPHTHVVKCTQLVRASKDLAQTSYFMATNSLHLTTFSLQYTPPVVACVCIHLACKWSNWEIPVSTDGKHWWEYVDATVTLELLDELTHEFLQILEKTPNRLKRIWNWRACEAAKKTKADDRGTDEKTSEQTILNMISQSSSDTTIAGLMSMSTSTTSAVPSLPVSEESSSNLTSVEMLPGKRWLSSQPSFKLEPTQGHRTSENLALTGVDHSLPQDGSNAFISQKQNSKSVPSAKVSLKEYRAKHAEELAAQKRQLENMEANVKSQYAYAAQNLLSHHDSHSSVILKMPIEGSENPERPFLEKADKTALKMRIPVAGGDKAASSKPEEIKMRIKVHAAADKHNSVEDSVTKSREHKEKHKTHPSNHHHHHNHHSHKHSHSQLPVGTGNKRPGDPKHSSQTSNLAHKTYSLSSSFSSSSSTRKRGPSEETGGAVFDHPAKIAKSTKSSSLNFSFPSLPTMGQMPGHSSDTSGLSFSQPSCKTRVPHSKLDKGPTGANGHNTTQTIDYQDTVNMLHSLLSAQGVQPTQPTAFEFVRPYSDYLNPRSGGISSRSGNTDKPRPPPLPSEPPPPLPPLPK
Chain of CDK9/cyclin T1 (P50750 whole entry): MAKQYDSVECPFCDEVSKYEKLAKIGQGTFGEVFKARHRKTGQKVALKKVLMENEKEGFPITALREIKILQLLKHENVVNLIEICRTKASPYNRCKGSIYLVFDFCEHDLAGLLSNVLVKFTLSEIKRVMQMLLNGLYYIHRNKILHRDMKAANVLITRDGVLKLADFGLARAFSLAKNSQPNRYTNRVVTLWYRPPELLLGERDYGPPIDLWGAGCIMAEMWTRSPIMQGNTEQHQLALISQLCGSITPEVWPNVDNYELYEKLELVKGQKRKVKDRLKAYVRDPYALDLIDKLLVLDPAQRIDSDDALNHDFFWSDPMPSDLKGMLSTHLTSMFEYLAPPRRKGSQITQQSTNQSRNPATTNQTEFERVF
Chain of Mitogen-activated protein kinase 14 (Q16539 whole entry): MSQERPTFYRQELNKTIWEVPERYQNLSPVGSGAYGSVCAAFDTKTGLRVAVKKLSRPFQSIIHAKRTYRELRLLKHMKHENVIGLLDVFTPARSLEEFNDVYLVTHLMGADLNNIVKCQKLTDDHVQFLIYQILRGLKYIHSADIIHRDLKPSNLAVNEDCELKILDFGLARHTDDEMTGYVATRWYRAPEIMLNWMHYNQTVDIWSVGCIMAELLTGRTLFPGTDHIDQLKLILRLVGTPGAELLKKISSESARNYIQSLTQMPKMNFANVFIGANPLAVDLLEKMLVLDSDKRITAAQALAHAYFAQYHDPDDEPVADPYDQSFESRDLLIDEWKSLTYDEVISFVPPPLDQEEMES
Chain of CDK6/cyclin D3 (P30281 whole entry): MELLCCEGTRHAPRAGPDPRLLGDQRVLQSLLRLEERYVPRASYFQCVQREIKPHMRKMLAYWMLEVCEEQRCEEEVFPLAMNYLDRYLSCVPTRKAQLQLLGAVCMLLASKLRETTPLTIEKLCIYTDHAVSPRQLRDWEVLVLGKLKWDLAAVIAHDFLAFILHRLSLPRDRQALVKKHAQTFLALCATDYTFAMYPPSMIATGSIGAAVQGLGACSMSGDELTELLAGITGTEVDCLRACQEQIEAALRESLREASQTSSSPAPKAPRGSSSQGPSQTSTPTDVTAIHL
Chain of CDK6/cyclin D3 (Q00534 whole entry): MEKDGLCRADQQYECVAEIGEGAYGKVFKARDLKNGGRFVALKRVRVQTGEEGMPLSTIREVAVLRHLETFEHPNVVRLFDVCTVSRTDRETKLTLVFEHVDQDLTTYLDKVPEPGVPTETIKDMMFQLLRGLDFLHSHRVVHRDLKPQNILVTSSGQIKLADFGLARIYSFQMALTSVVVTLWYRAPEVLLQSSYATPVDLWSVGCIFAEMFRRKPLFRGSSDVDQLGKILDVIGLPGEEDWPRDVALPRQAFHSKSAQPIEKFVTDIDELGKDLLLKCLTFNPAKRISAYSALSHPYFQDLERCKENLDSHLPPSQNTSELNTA

The IC50 is the concentration that gives 50% inhibition. As for `COc1cc(N2CCC(N3CCN(C)CC3)CC2)ccc1Nc1ncc(Cl)c(Nc2ccccc2P(C)(C)=O)n1` [BRIGATINIB], the IC50 in the series with BaF3 [1] was 433 nM; with A-431, 709 nM; in the series with BaF3 [2], less than 100 nM.

A word on the AUC(0-inf): it is the area under the concentration-time curve extrapolated to infinity. The AUC(0-t) is exposure summed from dosing to a finite time, without extrapolation to infinity. What is called half-life is the time in which the quantity being followed falls by half. The term MRT denotes the average time that molecules of a dose stay in the body. As usually defined, the Cmax is the peak of the concentration-time curve. Broadly, the MTD is the highest dose tested that stayed within the study's limit of toxicity. The compound `COCC1CN(C2CCN(c3cc(OC)c(Nc4ncc(Br)c(Nc5ccc6c(c5P(C)(C)=O)OCCO6)n4)cc3C)CC2)C1` yielded an AUC(0-inf) in [3] of 11600 ng·h/mL. Moreover, the Activity in the series with BaF3 [4] is reported as 0.161 g; in series [9], “Non-Toxic”; in series [19], 0.38 g; in [24] it was “Non-Toxic”; in [28], “Toxic”; in [30], “Non-Toxic”. Also, the Activity stood at 0.475 g in series [33], 0.319 g in the series with BaF3 [35] and 0.653 g with BaF3 [36]. Also, the inhibition result (in series [5]; in the series on BaF3 [14]) was “Active” throughout. For the same compound, the Drug uptake entry in [6], in series [22], in series [31] and in [32] was “Active” throughout. Further, the half-inhibitory concentration (IC50) in series [7] was 0.09 nM; against CDK9/cyclin T1, 4.08 µM; on CDK6/cyclin D3, greater than 10 µM; in series [10], 0.31 nM; with BaF3 [1] it was 14 nM; in [11], greater than 10 µM. The 50% inhibitory concentration (IC50) is greater than 10 µM in series [23], greater than 10 µM in [27], greater than 10 µM in series [29] and 86 nM in [37]. Moreover, the results for the inhibition in vivo at 30 mg/kg in the series with BaF3 [8] and with PC-9 [17] were 82.6% and 47.2%, respectively. Besides, the area under the curve AUC(0-t) at 24 h in series [12] worked out at 11600 ng·h/mL. Moreover, the inhibition in vivo at 40 mg/kg came out at 90.3% with BaF3 [13], 68.8% in the series on PC-9 [15] and 67.4% in series [21]. This compound also showed a half-life in [16] of 174 min. Also, in series [18], the inhibition in vivo at 20 mg/kg was determined as 58.4%. For the same compound, the inhibition in vivo at 15 mg/kg was 48.4% with BaF3 [20] and 22% with PC-9 [25]. The compound further yielded an MRT in [26] of 4.7 h. In series [34], this compound displayed a Cmax of 1990 ng/mL. Besides, the MTD at 1344 h in [38] was found to be 15 mg/kg.
